The values that follow are results of earlier work, collected in patent US8338423B2, “Compositions for the treatment of hyperphenylalaninemia” (Universidad de Zaragoza, priority 2007, dated 2012).

For this data set, the target named is T1, wt-PAH (Homo sapiens, UniProt P00439).
T1 construct: made in house; host or cells: E. coli
T1 sequence (P00439 1-452): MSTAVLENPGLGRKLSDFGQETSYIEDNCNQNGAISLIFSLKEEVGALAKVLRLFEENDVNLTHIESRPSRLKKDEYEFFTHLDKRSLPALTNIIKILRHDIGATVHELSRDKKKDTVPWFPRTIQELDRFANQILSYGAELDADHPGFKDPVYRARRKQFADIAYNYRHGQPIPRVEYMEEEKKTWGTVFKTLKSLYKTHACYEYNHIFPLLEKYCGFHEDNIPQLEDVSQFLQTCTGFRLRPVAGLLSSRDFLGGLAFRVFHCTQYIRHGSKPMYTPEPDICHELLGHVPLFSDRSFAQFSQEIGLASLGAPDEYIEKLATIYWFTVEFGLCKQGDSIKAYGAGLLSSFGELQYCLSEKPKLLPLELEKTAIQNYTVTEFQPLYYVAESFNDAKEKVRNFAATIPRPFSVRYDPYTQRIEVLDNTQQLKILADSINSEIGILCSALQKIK
Conditions: comparison values; read-out: Kl of likely physiological inhibitors of PAH; cited from earlier work.

In the case of `C[C@H](O)[C@H](O)C1=Nc2c(nc(N)[nH]c2=O)NC1` [BH2], the Ki is roughly 17 µM.

As for `CC(O)C(O)C1CNc2c(nc(N)[nH]c2=O)N1` (stereo not drawn) [Compound 7S-BH4], the Ki is 2 to 5 µM.
